Data taken from patent publication US20140005163A1 (NOVARTIS AG, priority 2010, published 2014).

How the values were obtained:
[1] = test system: PKB Ser473 phosphorylation in Rat1-myr-HA-p110 beta cells; assay: Reverse protein array assay, PKB Ser473 phosphorylation in Rat1-myr-p110 beta cells; format: cell-based; details: 0.5 h, pAkt Ser473, 30 minutes incubation, read-out: p-PKB IC50
Procedure, shortened: (§1)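 After at least 20 h of culture, the p110 isoform-transfected Rat1 lines receive compound in an 8-step dilution series, keeping DMSO at 0.2%, for 30 minutes. Cells are then lysed and lysates arrayed on chips for fluorescence detection of Ser473-phosphorylated PKB.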

[2] = test system: PKB Ser473 phosphorylation in Rat1-myr-HA-p110 delta cells; assay: Reverse protein array assay, PKB Ser473 phosphorylation in Rat1-myr-p110 delta cells; format: cell-based; details: read-out: p-PKB IC50
Procedure, shortened: as §1

PI3K delta = molecular target: T1, PI3K delta (Homo sapiens, UniProt O00329); assay: PI3K delta kinase assay (Kinase-Glo luminescence); format: biochemical
T1 construct: for the full-length p110-d subunit are generated and fused by overlapping PCR; p85(iSH2) fusion partner (see partner chain) (N); His tag (C); made in house; host or cells: baculovirus; Tn5 (Trichoplusia ni) or TiniPro insect cells
T1 sequence (O00329 with tags, fused parts or gaps limits assumed): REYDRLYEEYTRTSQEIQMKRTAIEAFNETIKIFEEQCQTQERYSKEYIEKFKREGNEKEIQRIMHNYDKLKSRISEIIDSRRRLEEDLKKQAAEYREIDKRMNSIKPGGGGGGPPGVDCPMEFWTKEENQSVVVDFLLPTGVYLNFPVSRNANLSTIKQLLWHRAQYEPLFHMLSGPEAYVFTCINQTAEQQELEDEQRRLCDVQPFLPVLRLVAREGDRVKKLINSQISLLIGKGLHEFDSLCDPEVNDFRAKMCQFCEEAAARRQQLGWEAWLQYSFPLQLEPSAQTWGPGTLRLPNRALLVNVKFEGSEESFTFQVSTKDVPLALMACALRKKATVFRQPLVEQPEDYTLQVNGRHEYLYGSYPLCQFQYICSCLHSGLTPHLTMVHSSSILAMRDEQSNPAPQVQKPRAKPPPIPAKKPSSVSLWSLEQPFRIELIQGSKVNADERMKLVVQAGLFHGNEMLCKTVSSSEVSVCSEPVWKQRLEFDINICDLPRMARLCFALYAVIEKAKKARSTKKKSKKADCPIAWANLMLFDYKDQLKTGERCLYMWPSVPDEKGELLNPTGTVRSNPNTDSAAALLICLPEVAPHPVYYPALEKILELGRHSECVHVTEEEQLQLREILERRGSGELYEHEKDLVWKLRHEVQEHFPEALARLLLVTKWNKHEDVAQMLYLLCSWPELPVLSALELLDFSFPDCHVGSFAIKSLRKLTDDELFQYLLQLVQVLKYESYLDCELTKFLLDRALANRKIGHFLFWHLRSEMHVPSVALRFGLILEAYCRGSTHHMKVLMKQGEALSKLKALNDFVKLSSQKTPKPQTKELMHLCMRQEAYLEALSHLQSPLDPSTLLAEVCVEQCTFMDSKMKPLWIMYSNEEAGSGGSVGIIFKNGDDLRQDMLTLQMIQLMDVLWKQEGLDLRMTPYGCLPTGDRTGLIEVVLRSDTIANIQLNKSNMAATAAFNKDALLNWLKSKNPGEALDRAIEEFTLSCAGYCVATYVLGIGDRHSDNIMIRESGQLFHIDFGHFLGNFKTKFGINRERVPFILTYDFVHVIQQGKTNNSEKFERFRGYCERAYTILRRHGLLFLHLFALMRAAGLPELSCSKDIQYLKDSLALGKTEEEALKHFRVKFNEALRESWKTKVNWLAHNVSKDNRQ
Procedure, shortened: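 ATP 1 μM, PI 10 μg/mL, PI3Kδ construct BV1060 10 nM (final); 10 mM Tris pH 7.5, 3 mM MgCl2, 50 mM NaCl, 0.05% CHAPS, 1 mM DTT; 60 min RT; Kinase-Glo stop, luminescence.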

IC50 [1] | IC50 [2] | IC50 (PI3K delta) | SMILES
< 5 nM | < 5 nM | 10 nM | CCNc1cc(-c2ccc3ncc4c(c3c2)n(-c2cn(C)nc2C)c(=O)n4C)cnc1C [Example 87.1, 1-(1,3-Dimethyl-1H-pyrazol-4-yl)-8-(5-ethylamino-6-methyl-pyridin-3-yl)-3-methyl-1,3-dihydro-imidazo[4,5-c]quinolin-2-one]
85 nM | 91 nM | 17 nM | CCNc1cc(-c2ccc3ncc4c(c3c2)n(-c2c(C)nn(CCOC)c2C)c(=O)n4C)cnc1C [Example 87.4, 8-(5-Ethylamino-6-methyl-pyridin-3-yl)-1-[1-(2-methoxy-ethyl)-3,5-dimethyl-1H-pyrazol-4-yl]-3-methyl-1,3-dihydro-imidazo[4,5-c]quinolin-2-one]
28 nM | 59 nM | 8 nM | Cc1ncc(-c2ccc3ncc4c(c3c2)n(-c2cn(C)nc2C)c(=O)n4C)cc1N [Example 88.2, 8-(5-Amino-6-methyl-pyridin-3-yl)-1-(1,3-dimethyl-1H-pyrazol-4-yl)-3-methyl-1,3-dihydro-imidazo[4,5-c]quinolin-2-one]
< 5 nM | < 5 nM | 31 nM | CCNc1cc(-c2ccc3ncc4c(c3c2)n(-c2cn(C)nc2Cl)c(=O)n4C)cnc1OC [Example 90.1, 1-(3-Chloro-1-methyl-1H-pyrazol-4-yl)-8-(5-ethylamino-6-methoxy-pyridin-3-yl)-3-methyl-1,3-dihydro-imidazo[4,5-c]quinolin-2-one]
14 nM | 12 nM | 18 nM | CNc1ccc(-c2ccc3ncc4c(c3c2)n(-c2cn(C(C)C)nc2C)c(=O)n4C)cn1 [Example 118.1, 1-(1-isopropyl-3-methyl-1H-pyrazol-4-yl)-3-methyl-8-(6-methylamino-pyridin-3-yl)-1,3-dihydro-imidazo[4,5-c]quinolin-2-one]
43 nM | 396 nM | 84 nM | CNc1ccc(-c2ccc3ncc4c(c3c2)n(-c2cn(CC(=O)N(C)C)nc2C)c(=O)n4C)cn1 [Example 118.3, N,N-Dimethyl-2-{3-methyl-4-[3-methyl-8-(6-methylamino-pyridin-3-yl)-2-oxo-2,3-dihydro-imidazo[4,5-c]quinolin-1-yl]-pyrazol-1-yl}-acetamide]
< 5 nM | 6 nM | 5 nM | CNc1ccc(-c2ccc3ncc4c(c3c2)n(-c2cn(C)nc2Cl)c(=O)n4C)cn1 [Example 118.5, 1-(3-Chloro-1-methyl-1H-pyrazol-4-yl)-3-methyl-8-(6-methylamino-pyridin-3-yl)-1,3-dihydro-imidazo[4,5-c]quinolin-2-one]
11 nM | 19 nM | 33 nM | Cc1nn(C)cc1-n1c(=O)n(C)c2cnc3ccc(-c4cnc(N)c(F)c4)cc3c21 [Example 142.2, 8-(6-Amino-5-fluoro-pyridin-3-yl)-1-(1,3-dimethyl-1H-pyrazol-4-yl)-3-methyl-1,3-dihydro-imidazo[4,5-c]quinolin-2-one]
168 nM | 280 nM | 18 nM | CCNc1ncc(-c2ccc3ncc4c(c3c2)n(-c2c(C)nn(C)c2C)c(=O)n4C)cc1C(F)(F)F [Example 145.1, 8-(6-Ethylamino-5-trifluoromethyl-pyridin-3-yl)-3-methyl-1-(1,3,5-trimethyl-1H-pyrazol-4-yl)-1,3-dihydro-imidazo[4,5-c]quinolin-2-one]
119 nM | 24 nM | 14 nM | CNc1ncc(-c2ccc3ncc4c(c3c2)n(-c2cn(C(C)C)nc2C)c(=O)n4C)cc1Cl [Example 146.3, 8-(5-Chloro-6-methylamino-pyridin-3-yl)-1-(1-isopropyl-3-methyl-1H-pyrazol-4-yl)-3-methyl-1,3-dihydro-imidazo[4,5-c]quinolin-2-one]
428 nM | 564 nM | 10 nM | CNc1ncc(-c2ccc3ncc4c(c3c2)n(-c2c(C)noc2C)c(=O)n4C)cc1Cl [Example 146.6, 8-(5-Chloro-6-methylamino-pyridin-3-yl)-1-(3,5-dimethyl-isoxazol-4-yl)-3-methyl-1,3-dihydro-imidazo[4,5-c]quinolin-2-one]

More lines, now with the values behind:

SMILES | IC50 [1] | IC50 [2] | IC50 (PI3K delta)
Cc1nn(C)cc1-n1c(=O)n(C)c2cnc3ccc(-c4cnc(N)nc4)cc3c21 [Example 81.1, 8-(2-Amino-pyrimidin-5-yl)-1-(1,3-dimethyl-1H-pyrazol-4-yl)-3-methyl-1,3-dihydro-imidazo[4,5-c]quinolin-2-one] | 18 nM | 11 nM | 39 nM
Cc1nn(C)cc1-n1c(=O)n(C)c2cnc3ccc(-c4cccc(OC(C)C)c4F)cc3c21 [Example 83, 1-(1,3-Dimethyl-1H-pyrazol-4-yl)-8-(2-fluoro-3-isopropoxy-phenyl)-3-methyl-1,3-dihydro-imidazo[4,5-c]quinolin-2-one] | 353 nM | 508 nM | 234 nM
COCCOc1cc(-c2ccc3ncc4c(c3c2)n(-c2cn(C)nc2C)c(=O)n4C)cnc1C [Example 86.2, 1-(1,3-Dimethyl-1H-pyrazol-4-yl)-8-[5-(2-methoxy-ethoxy)-6-methyl-pyridin-3-yl]-3-methyl-1,3-dihydro-imidazo[4,5-c]quinolin-2-one] | 53 nM | 57 nM | 6 nM
Cc1nn(C)cc1-n1c(=O)n(C)c2cnc3ccc(-c4ccc(N5CCN(C)CC5)nc4)cc3c21 [Example 96, 1-(1,3-Dimethyl-1H-pyrazol-4-yl)-3-methyl-8-[6-(4-methyl-piperazin-1-yl)-pyridin-3-yl]-1,3-dihydro-imidazo[4,5-c]quinolin-2-one] | 37 nM | 60 nM | 199 nM
COc1ccc(-c2ccc3ncc4c(c3c2)n(-c2cn(CC(=O)N(C)C)nc2C)c(=O)n4C)cn1 [Example 102, 2-{4-[8-(6-Methoxy-pyridin-3-yl)-3-methyl-2-oxo-2,3-dihydro-imidazo[4,5-c]quinolin-1-yl]-3-methyl-pyrazol-1-yl}-N,N-dimethyl-acetamide] | 34 nM | 78 nM | 26 nM
CCn1cc(-n2c(=O)n(C)c3cnc4ccc(-c5ccc(COC)nc5)cc4c32)c(C)n1 [Example 104, 1-(1-Ethyl-3-methyl-1H-pyrazol-4-yl)-8-(6-methoxymethyl-pyridin-3-yl)-3-methyl-1,3-dihydro-imidazo[4,5-c]quinolin-2-one] | 37 nM | 110 nM | 141 nM
Cc1nn(C(C)C)cc1-n1c(=O)n(C)c2cnc3ccc(-c4ccc(C(N)=O)nc4)cc3c21 [Example 112, 5-[1-(1-Isopropyl-3-methyl-1H-pyrazol-4-yl)-3-methyl-2-oxo-2,3-dihydro-1H-imidazo[4,5-c]quinolin-8-yl]-pyridine-2-carboxylic acid amide] | 73 nM | 69 nM | 209 nM
Cc1nn(C)cc1-n1c(=O)n(C)c2cnc3ccc(-c4cccc(N(C)S(C)(=O)=O)c4)cc3c21 [Example 117, N-{3-[1-(1,3-Dimethyl-1H-pyrazol-4-yl)-3-methyl-2-oxo-2,3-dihydro-1H-imidazo[4,5-c]quinolin-8-yl]-phenyl}-N-methyl-methanesulfonamide] | 659 nM | 425 nM | 147 nM
CCNc1cncc(-c2ccc3ncc4c(c3c2)n(-c2cn(C)nc2C)c(=O)n4C)c1 [Example 122, 1-(1,3-Dimethyl-1H-pyrazol-4-yl)-8-(5-ethylamino-pyridin-3-yl)-3-methyl-1,3-dihydro-imidazo[4,5-c]quinolin-2-one] | 22 nM | 56 nM | 14 nM
CCOc1ccc(-c2ccc3ncc4c(c3c2)n(-c2cn(CCOC)nc2C)c(=O)n4C)cn1 [Example 131, 8-(6-Ethoxy-pyridin-3-yl)-1-[1-(2-methoxy-ethyl)-3-methyl-1H-pyrazol-4-yl]-3-methyl-1,3-dihydro-imidazo[4,5-c]quinolin-2-one] | 29 nM | 127 nM | 271 nM
[2H]C([2H])([2H])Nc1ncc(-c2ccc3ncc4c(c3c2)n(-c2c(C)nn(C)c2C)c(=O)n4C)cc1C(F)(F)F [Example 143, 3-Methyl-8-(6-trideuteromethylamino-5-trifluoromethyl-pyridin-3-yl)-1-(1,3,5-trimethyl-1H-pyrazol-4-yl)-1,3-dihydro-imidazo[4,5-c]quinolin-2-one] | 57 nM | 86 nM | 10 nM
CCNc1ncc(-c2ccc3ncc4c(c3c2)n(-c2cn(C)nc2C)c(=O)n4C)cc1Cl [Example 147, 8-(5-Chloro-6-ethylamino-pyridin-3-yl)-1-(1,3-dimethyl-1H-pyrazol-4-yl)-3-methyl-1,3-dihydro-imidazo[4,5-c]quinolin-2-one] | 30 nM | 86 nM | 8 nM
Cc1nn(C)cc1-n1c(=O)n(C)c2cnc3ccc(-c4cnc(F)c(N(C)C)c4)cc3c21 [Example 151, 8-(5-Dimethylamino-6-fluoro-pyridin-3-yl)-1-(1,3-dimethyl-1H-pyrazol-4-yl)-3-methyl-1,3-dihydro-imidazo[4,5-c]quinolin-2-one] | 22 nM | 40 nM | 5 nM
